From ChEMBL document CHEMBL4616582, “Green recipes to quinoline: A review” (Eur J Med Chem, 2019) come the findings set out here.

The term IC50 denotes the concentration that gives 50% inhibition. Low readings indicate greater potency, high ones weaker potency.

Values after ≈ are worked out from the molar mass of the structure shown.

Common to all, as to format: functional, organism-based
The subject of experiment [1] is Leishmania donovani. Nature of the experiment: Antileishmanial activity against Leishmania donovani promastigotes.
Experiment [2] deals with Leishmania donovani. Kind of experiment: Antileishmanial activity against Leishmania donovani amastigotes.
Experiment [3] deals with Plasmodium falciparum. Kind of experiment: Antimalarial activity against chloroquine and quinine sensitive Plasmodium falciparum.

Consider `Nc1ccccc1C(=O)c1ccccc1`, for which the IC50 in experiment [1] and in experiment [2] was 1.34 to 3.26 µg/mL (≈ 6.79 to 16.5 µM) throughout. Regarding `Nc1ccc(Cl)cc1C(=O)c1ccccc1`, the IC50 in experiment [1] and in experiment [2] was 1.34 to 3.26 µg/mL (≈ 5.78 to 14.1 µM) each time.

As for `COc1ccc(NN2C(N)=C(C#N)C(c3c(C)nn(-c4ccccc4)c3Oc3cccc(C(F)(F)F)c3)C3=C2CC(C)(C)CC3=O)cc1` (stereo unspecified), the concentration for half-maximal inhibition (IC50) in experiment [3] lay within 0.042 to 0.09 µg/mL (≈ 0.0642 to 0.137 µM).

Regarding `CSC(=S)/C=C(\O)c1ccccc1`, the half-maximal inhibitory concentration (IC50) in experiment [1] and in experiment [2] was 1.34 to 3.26 µg/mL (≈ 6.37 to 15.5 µM) throughout. The compound `Cc1nn(-c2ccccc2)c(Oc2cccc(C(F)(F)F)c2)c1C1C(C#N)=C(N)N(Nc2ccc(Br)cc2)C2=C1C(=O)CC(C)(C)C2` (stereo unspecified) yielded an IC50 in experiment [3] of 0.042 to 0.09 µg/mL (≈ 0.0597 to 0.128 µM). With `CSC(=S)/C=C(\O)c1ccc(C)cc1`, the 50% inhibitory concentration (IC50) in experiment [1] and in experiment [2] was 1.34 to 3.26 µg/mL (≈ 5.97 to 14.5 µM) in each case.

For `Cc1nn(-c2ccccc2)c(Oc2cccc(F)c2)c1C1C(C#N)=C(N)N(Nc2ccc(Br)cc2)C2=C1C(=O)CC(C)(C)C2` (stereo unspecified), the half-inhibitory concentration (IC50) in experiment [3] was in the range of 0.042 to 0.09 µg/mL (≈ 0.0643 to 0.138 µM).

Take `CSC(=S)/C=C(\O)c1ccccc1Cl`: the IC50 in experiment [1] and in experiment [2] was 1.34 to 3.26 µg/mL (≈ 5.47 to 13.3 µM) throughout. As to `CSC(=S)/C=C(\O)c1ccco1`, the IC50 in experiment [1] and in experiment [2] was 1.34 to 3.26 µg/mL (≈ 6.69 to 16.3 µM) in each case.

On to `CSC(=S)/C=C(\O)c1cccc(C)c1`, for which the IC50 in experiment [1] and in experiment [2] was 1.34 to 3.26 µg/mL (≈ 5.97 to 14.5 µM) in each case. Take `COc1ccc(NN2C(N)=C(C#N)C(c3c(C)nn(-c4ccccc4)c3Oc3cccc(F)c3)C3=C2CC(C)(C)CC3=O)cc1` (stereo unspecified): the IC50 in experiment [3] was in the range of 0.042 to 0.09 µg/mL (≈ 0.0695 to 0.149 µM). Still for that read-out and setting: the same measure for `Cc1nn(-c2ccccc2)c(Oc2cccc(C(F)(F)F)c2)c1C1C(C#N)=C(N)N(Nc2ccc(F)cc2)C2=C1C(=O)CC(C)(C)C2` (stereo unspecified): 0.042 to 0.09 µg/mL (≈ 0.0654 to 0.14 µM). Consider `CSC(=S)/C=C(\O)c1cccs1`, for which the half-maximal inhibitory concentration (IC50) in experiment [1] and in experiment [2] was 1.34 to 3.26 µg/mL (≈ 6.19 to 15.1 µM) throughout. Turning to `COc1ccc(/C(O)=C/C(=S)SC)cc1`, the IC50 in experiment [1] and in experiment [2] was 1.34 to 3.26 µg/mL (≈ 5.58 to 13.6 µM) each time. Compound `Cc1nn(-c2ccccc2)c(Oc2cccc(F)c2)c1C1C(C#N)=C(N)N(Nc2ccc(F)cc2)C2=C1C(=O)CC(C)(C)C2` (stereo unspecified) returned a 50% inhibitory concentration (IC50) in experiment [3] of 0.042 to 0.09 µg/mL (≈ 0.0709 to 0.152 µM). On the same count and under the same terms, the same measure for `Cc1nn(-c2ccccc2)c(Oc2ccc(F)cc2)c1C1C(C#N)=C(N)N(Nc2ccc(F)cc2)C2=C1C(=O)CC(C)(C)C2` (stereo unspecified): 0.042 to 0.09 µg/mL (≈ 0.0709 to 0.152 µM). `CSC(=S)/C=C(\O)c1ccc(C(F)(F)F)cc1`: the concentration for half-maximal inhibition (IC50) in experiment [1] and in experiment [2] was 1.34 to 3.26 µg/mL (≈ 4.81 to 11.7 µM) in each case. With `Cc1nn(-c2ccccc2)c(Oc2ccc(F)cc2)c1C1C(C#N)=C(N)N(Nc2ccc(Br)cc2)C2=C1C(=O)CC(C)(C)C2` (stereo unspecified), the IC50 in experiment [3] lay in the range of 0.042 to 0.09 µg/mL (≈ 0.0643 to 0.138 µM). Regarding `CCCCCCCCCCCCCCCCOP(=O)([O-])OCC[N+](C)(C)C` [MILTEFOSINE], the half-maximal inhibitory concentration (IC50) stood at 4.54 µg/mL (≈ 11.1 µM) in experiment [1] and 8.2 µg/mL (≈ 20.1 µM) in experiment [2]. Compound `C=C[C@H]1CN2CC[C@H]1C[C@H]2[C@H](O)c1ccnc2ccc(OC)cc12` [QUININE] displayed a half-inhibitory concentration (IC50) in experiment [3] of 0.268 µg/mL (≈ 0.826 µM).
